Test results published in publication PMC12147183, “Lacritin cleavage-potentiated targeting of iron - respiratory reciprocity promotes bacterial death” (The Journal of Biological Chemistry, 2025).
Peptide text beside a SMILES is read from it.

What was measured:
His-tagged FeoB = His-tagged FeoB binding to peptide columns; set-up: species or system P. aeruginosa PAO1; conditions: step gradient 0.3, 0.5, 1.0 M KCl, 0.05% dodecyl-β-D-maltopyranoside, 4 °C, anti-His Western blot, n = 3
Protocol: (§1) We used the pFeoB plasmid ([6]) with feoB insert from P. aeruginosa PAO1 in pET41-a(+) with a C-terminal 8-His tag and kanamycin-resistant cassette, and E. coli EcCD00397460 plasmid (DNASU Plasmid Repository, Tempe Arizona) with potH insert in PCDF Bravo with C-terminal 10-His tag and streptomycin-resistant cassette. Plasmids of each were generated using standard procedures. His-tagged FeoB or PotH proteins in the supernatant were captured on Ni-Sepharose for 4 h with end-over-end rotation at 4 °C, washed with 10 mM HEPES potassium salt, 10% glycerol, 0.5 M NaCl, 10 mM MgSO4, 10 mM imidazole, and 0.05% dodecyl-β-D-maltopyranoside and eluted with the same wash buffer but containing 0.2 M NaCl and 0.5 M imidazole. Eluted FeoB and PotH were concentrated into 10 mM HEPES potassium salt, 10% glycerol, 10 mM MgSO4, 0.05% dodecyl-β-D-maltopyranoside and 0.15 M NaCl respectively on Amicon Ultra-0.5 Centrifugal UFC505024, UFC503024 and UFC900596 filter units.
(§2) N-104 and C-95 columns (1 ml each) equilibrated in 10 mM HEPES potassium salt, 10% glycerol, 10 mM MgSO4, 0.05% dodecyl-β-D-maltopyranoside, and 0.15 M NaCl were individually mixed at 4 °C overnight with purified FeoB and PotH. […]

His-tagged PotH = biological target: T1, His-tagged PotH (Escherichia coli, UniProt P31135); experiment: His-tagged PotH binding to peptide columns; set-up: species or system E. coli; conditions: step gradient 0.3, 0.5, 1.0 M KCl, 0.05% dodecyl-β-D-maltopyranoside, 4 °C, anti-His Western blot, n = 3
T1 construct: host or cells: legend says PA14
Protocol: as §1, §2

Fe^2+ uptake by PA14 = assay type: cell-based, Pseudomonas aeruginosa
Protocol: Iron depletion was induced in PA14 cells (5 × 10^9 cfu in 10 ml 10 mM Na2HPO4, 1.8 mM KH2PO4, 2.7 mM KCl, 137 mM NaCl (pH 7.2) by treatment with the chelator 1 mM 2,2′-bipyridyl at room temperature for 1 h. After washing twice with 0.9% NaCl, cells were suspended in 1 ml of 1 mM Na2HPO4, 0.18 mM KH2PO4, 0.27 mM KCl, 13.7 mM NaCl for treatment without or with 1, 10, 25, 50 or 100 μM of N-104 (or negative control N-80/C-25 or C-95) for 45 min at 35 °C, incubated at the same temperature for 15 min with 100 μM FeSO4 and 13 mM ascorbic acid, washed twice with 1 mM Na2HPO4, 0.18 mM KH2PO4, 0.27 mM KCl, and 13.7 mM NaCl, and pelleted at 12,000g. The ferrozine assay ([54]) was subsequently employed. Briefly, cells in pellets were lysed with 20 μl of 50 mM NaOH, partially neutralized with 20 μl of 10 mM HCl, subjected to iron release with 20 μl of acidified 0.29 M KMnO4 for 30 min at 80 °C, cooled to room temperature, incubated with 7 μl of 30 mM ferrozine, 1.1 μl of 180 mM neocuproine, 15 μl of 5 M ammonium acetate and 15 μl of 1 M ascorbic acid for 30 min at room temperature and then centrifuged at 21,000g for 10 min. Cellular iron uptake could then be assessed from the supernatant OD565. Single-molecule transport per cell was estimated using a standard curve.

GKY20 = GKY20 (Homo sapiens, UniProt P00734); experiment: Dot blot binding assay on immobilized GKY20; conditions: 20 μM peptide, 2 h at 35 °C, LI-COR detection
Protocol: After washing three times for 10 min, each with 10 ml of 10 mM Na2HPO4, 1.8 mM KH2PO4, 2.7 mM KCl, 137 mM NaCl (pH 7.2), nitrocellulose membranes were incubated overnight at 4 °C with 1 μg/ml of either rabbit polyclonal ab-C-term with specificity for the C-terminal 54 amino acids of lacritin ([86]) appropriate for N-104 or its analogs, or with rabbit anti-lacritin N-terminus antibody ab-N-term appropriate for C-95. Membranes washed three times for 10 min each with 10 ml of 10 mM Na2HPO4, 1.8 mM KH2PO4, 2.7 mM KCl, 137 mM NaCl (pH 7.2), were then incubated with 0.1 μg/ml of IRDye 680RD labeled donkey antirabbit IgG (926-68073, LI-COR) as described above for LI-COR Odyssey CLx detection.

T1 sequence (P31135 whole entry): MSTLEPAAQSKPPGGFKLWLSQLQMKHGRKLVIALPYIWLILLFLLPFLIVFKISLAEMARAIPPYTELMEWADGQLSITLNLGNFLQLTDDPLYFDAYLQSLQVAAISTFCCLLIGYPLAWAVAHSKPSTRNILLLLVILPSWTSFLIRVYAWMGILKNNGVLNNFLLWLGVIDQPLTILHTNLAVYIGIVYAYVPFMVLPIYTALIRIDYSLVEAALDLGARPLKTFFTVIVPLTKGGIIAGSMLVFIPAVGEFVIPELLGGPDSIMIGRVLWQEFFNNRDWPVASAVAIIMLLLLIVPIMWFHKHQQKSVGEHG

SMILES	KCl elution of His-FeoB from immobilized peptide (His-tagged FeoB)	KCl elution of His-PotH from immobilized peptide (His-tagged PotH)	effect on exogenous Fe^2+ uptake (Fe^2+ uptake by PA14; 1 to 100 μM peptide)	binding to nitrocellulose-immobilized GKY20 (GKY20)	IC50 (Fe^2+ uptake by PA14; 1 h) [µM]
C[C@H](NC(=O)CNC(=O)[C@@H](NC(=O)[C@H](CO)NC(=O)[C@H](CC(=O)O)NC(=O)[C@H](CO)NC(=O)[C@H](CO)NC(=O)[C@H](C)NC(=O)[C@H](CC(=O)O)NC(=O)[C@@H](N)CCC(=O)O)[C@@H](C)O)C(=O)N[C@@H](CC(=O)O)C(=O)N1CCC[C@H]1C(=O)N[C@@H](C)C(=O)N[C@@H](CCC(N)=O)C(=O)N[C@@H](CCC(=O)O)C(=O)N[C@@H](C)C(=O)NCC(=O)N[C@H](C(=O)N[C@@H](CO)C(=O)N[C@@H](CCCCN)C(=O)N1CCC[C@H]1C(=O)N[C@@H](CC(N)=O)C(=O)N[C@@H](CCC(=O)O)C(=O)N[C@@H](CCC(=O)O)C(N)=O)[C@@H](C)O [C-95, reference compound] (H-EDASSDSTGADPAQEAGTSKPNEE-NH2)	lacked	lacked	had no effect	Only N-104 bound to GKY20	
CC(=O)N[C@@H](C)C(=O)N[C@@H](CCC(N)=O)C(=O)N[C@@H](CCCCN)C(=O)N[C@@H](CC(C)C)C(=O)N[C@@H](CC(C)C)C(=O)N[C@@H](CCCCN)C(=O)N[C@@H](CCCCN)C(=O)N[C@@H](Cc1ccccc1)C(=O)N[C@@H](CO)C(=O)N[C@@H](CC(C)C)C(=O)N[C@@H](CC(C)C)C(=O)N[C@@H](CCCCN)C(=O)N1CCC[C@H]1C(=O)N[C@@H](Cc1c[nH]c2ccccc12)C(=O)N[C@@H](C)C(=O)O [N-104] (Ac-AQKLLKKFSLLKPWA-OH)	eluted with 0.5 and 1 M but not 0.3 M KCl	eluted with 0.5 and 1 M but not 0.3 M KCl		bound to GKY20	10
